The EC50 is the concentration needed to bring the measured effect to its halfway point. By CC50 is commonly meant the concentration giving 50% cytotoxicity. A high value points to better tolerance by the cells.

Here are results for 54 compounds from ChEMBL document CHEMBL1156829 (Proc Natl Acad Sci U S A, 2008).

Data set [1] has as its system Plasmodium falciparum. The data set is described as follows: NOVARTIS: Inhibition of Plasmodium falciparum 3D7 (drug-susceptible) proliferation in erythrocyte-based infection assay. The data set is classed as functional, organism-based. The note with it: Plasmodium falciparum, 3D7.
The test system of data set [2] is Plasmodium falciparum. The data set is described as follows: NOVARTIS: Inhibition of Plasmodium falciparum W2 (drug-resistant) proliferation in erythrocyte-based infection assay. The class given is functional, organism-based. The note with it: Plasmodium falciparum, W2; read-out: EC50.
Data set [3] in a line: NOVARTIS: Cytotoxicity against human hepatocellular carcinoma cell line (Huh7). The data set is classed as toxicity, cell-based, Huh-7. The note with it: Huh7 cells (hepatocellular carcinoma cell line).

Turning to `CCCCOc1ccc(N2C(N)=NC(N)=NC2(C)C)cc1`, the EC50 with Plasmodium falciparum [1] is 156 nM; with Plasmodium falciparum [2], more than 1250 nM. In data set [3], the CC50 is more than 10 µM.
On the same counts, the results for `Cc1ccccc1/C=C1\SC(=Nc2ccccc2)NC1=O` are 1060 nM, more than 12500 nM and more than 100 µM.
For `CCOC(=O)c1cccc(N2C(N)=NC(N)=NC2(C)C)c1`, in that order: 148 nM, more than 1250 nM and more than 10 µM.
On the same counts, the results for `CCOc1ccc(N2C(N)=NC(N)=NC2(C)C)cc1` are 79 nM, more than 12500 nM and more than 100 µM.
Turning to `O=C(Nc1ccc(-c2nnc(-c3ccc(NC(=O)c4ccccc4[N+](=O)[O-])cc3)o2)cc1)c1ccccc1[N+](=O)[O-]`, the 50% effective concentration (EC50) in the data set on Plasmodium falciparum [1] is 406 nM; with Plasmodium falciparum [2], more than 12500 nM. In addition, the CC50 in data set [3] is more than 100 µM.
For `CN(C)CCNC(=O)c1ccc(-c2cncc(NCc3ccc(Cl)c(Cl)c3)c2)cc1`, in that order: 640 nM, 284 nM and 10.3 µM.
On the same counts, the results for `COc1ccc(N2C(N)=NC(N)=NC2(C)C)cc1` are 13.8 nM, more than 1250 nM and more than 10 µM.
For `COc1cc(C=C2CCC(=Cc3cc(OC)c(OC)c(OC)c3)C2=O)cc(OC)c1OC`, in that order: 2210 nM, 2750 nM and more than 100 µM.
For `CCN1CCN(c2cc(C)c3cc(NC(=O)C=Cc4ccc(OC)cc4)ccc3n2)CC1`, the values for the EC50 with Plasmodium falciparum [1] and in the data set on Plasmodium falciparum [2] were 2020 nM and 2750 nM, respectively. The compound further displayed a half-maximal cytotoxic concentration (CC50) in data set [3] of more than 100 µM.
In the case of `CCN(CC)CCCNC(=S)N(Cc1cc2ccc(OC)cc2[nH]c1=O)C1CCCCC1`, the EC50 with Plasmodium falciparum [1] worked out at 4030 nM; in the data set with Plasmodium falciparum [2], 1120 nM. This compound yielded a CC50 in data set [3] of 40.8 µM.
As to `CC1CCC(C(C)(C)Oc2ccc(NC(=O)c3ccccc3)cc2)CC1` (configuration not stated), the concentration giving a half-maximal response (EC50) amounted to 3970 nM in the data set on Plasmodium falciparum [1] and 1170 nM in the data set on Plasmodium falciparum [2]. The CC50 in data set [3] was 42.8 µM.
On the same counts, the results for `CC1=C(C(=O)OC2CCCCC2)C(c2ccc(F)c(F)c2)C2=C(CCCC2=O)N1` (configuration not stated) are 6230 nM, 2730 nM and more than 100 µM.
On the same counts, the results for `Cc1cc(N2CCN(c3ccccn3)CC2)n2c(nc3ccccc32)c1C#N` are 1400 nM, 2760 nM and more than 100 µM.
For `O=C(NC(CN1CCCC1)c1ccccc1)C1CCCCN1S(=O)(=O)c1ccc(Cl)cc1` (configuration not stated), in that order: 189 nM, 514 nM and 18.6 µM.
`CCCCCCCSc1c(O)c2ccc(Cl)cc2[nH]c1=O`: the results for the EC50 in the data set with Plasmodium falciparum [1] and with Plasmodium falciparum [2] were 122 nM and 272 nM, respectively. Moreover, the 50% cytotoxic concentration (CC50) in data set [3] is more than 10 µM.
For `NCCC(=O)N1CC(c2ccccc2)c2ccccc2C1CN1CCCCC1` (configuration not stated), in that order: 342 nM, 231 nM and 8.52 µM.
Turning to `Cc1ccc(C(CCNc2ncnc3c2[nH]c2ccccc23)c2ccco2)cc1` (configuration not stated), the concentration for a half-maximal effect (EC50) with Plasmodium falciparum [1] amounted to 736 nM; in the data set on Plasmodium falciparum [2], 524 nM. In data set [3], this compound returned a 50% cytotoxic concentration (CC50) of 19.4 µM.
On the same counts, the results for `CC1CC(=O)NN=C1c1ccc(NC(=O)c2ccccc2)cc1` (configuration not stated) are 305 nM, 270 nM and more than 10 µM.
On the same counts, the results for `O=C(Nc1ccc(NC(=O)Nc2ccc(C3=NCCN3)cc2)cc1)Nc1ccc(C2=NCCN2)cc1` are 305 nM, 276 nM and more than 10 µM.
On the same counts, the results for `Cc1cccc(-c2nc3cc(NC(=O)c4ccc([N+](=O)[O-])o4)ccc3o2)c1` are 1720 nM, more than 12500 nM and more than 100 µM.
Regarding `Cc1ccc(CNC(=O)CSc2nc3ccsc3c(=O)n2CCCCCC(=O)NCCc2ccccc2)cc1`, the EC50 with Plasmodium falciparum [1] worked out at 4430 nM; in the data set with Plasmodium falciparum [2] it was 2720 nM. In addition, in data set [3], the CC50 is more than 100 µM.
On the same counts, the results for `O=C(CN1C(=O)C2C3CCC(C3)C2C1=O)N1CCCC(c2ncncc2-c2ccncc2)C1` (configuration not stated) are 246 nM, more than 1250 nM and more than 10 µM.
Consider `C/C=C(\Cl)C1=CC(=O)[C@]23C[C@H]2[C@@]2(C)CO[C@@]1(O)[C@@]3(O)O2`, for which the EC50 with Plasmodium falciparum [1] is 205 nM; in the data set on Plasmodium falciparum [2], more than 1250 nM. This compound had a CC50 in data set [3] of more than 10 µM.
For `Cc1cc(CNC(=O)CC2C(=O)NCCN2Cc2ccccc2C(F)(F)F)nn1C` (configuration not stated), in that order: more than 27.4 nM, more than 1250 nM and more than 10 µM.
On the same counts, the results for `CN(C)c1ccc(N2C(N)=NC(N)=NC2(C)C)cc1` are 18.8 nM, more than 1250 nM and more than 10 µM.
On the same counts, the results for `COc1cc2c(cc1OC)C(CCCCCl)=NC(C)(C)C2` are 343 nM, more than 12500 nM and more than 100 µM.
With `O=C(C=Cc1ccccc1Cl)Nc1ccc(Oc2ccc3ccccc3c2Cl)c(Cl)c1`, the EC50 in the data set with Plasmodium falciparum [1] was 1030 nM; in the data set on Plasmodium falciparum [2], more than 12500 nM. For the same compound, the 50% cytotoxic concentration (CC50) in data set [3] was more than 100 µM.
For `CC1=C(C(=O)OC2CCCCC2)C(c2ccc(Cl)c(Cl)c2)C2=C(CCCC2=O)N1` (configuration not stated), in that order: 735 nM, more than 12500 nM and more than 100 µM.
For the compound `COc1cccc(-c2nc(CS(=O)(=O)CC(=O)N3CC(C)CC(C)C3)c(C)o2)c1` (configuration not stated), the EC50 in the data set on Plasmodium falciparum [1] was 136 nM; with Plasmodium falciparum [2], more than 1250 nM. In data set [3], this compound yielded a CC50 of more than 10 µM.
For `CCCCCN(C(=O)c1ccc(C(C)(C)C)cc1)C(CC)c1nc2ccccc2c(=O)n1-c1ccccc1OC` (configuration not stated), in that order: more than 117 nM, more than 1250 nM and more than 10 µM.
In the case of `Cc1nc(Cl)cc(N2CCc3c(nc(N4CC(C)OC(C)C4)[nH]c3=O)C2)n1` (configuration not stated), the figures for the EC50 in the data set on Plasmodium falciparum [1] and with Plasmodium falciparum [2] were 176 nM and more than 1250 nM, respectively. The half-maximal cytotoxic concentration (CC50) in data set [3] was more than 10 µM.
For `COc1cccc(-c2ccc(O)c(CNC3CCN(Cc4ccccc4)CC3)c2)n1`, in that order: 376 nM, 163 nM and 5.94 µM.
With `Cn1nc(C(=O)N2CCc3ccccc3C2)c2c1CCC(N1CCN(Cc3cccc(F)c3)CC1)C2` (configuration not stated), the EC50 in the data set with Plasmodium falciparum [1] was 477 nM; in the data set with Plasmodium falciparum [2] it was 220 nM. Further, it took 8.02 µM to reach half-maximal cytotoxicity in data set [3] (CC50).
On the same counts, the results for `Oc1c2c(nc3cc(-c4ccccc4)nn13)CCCC2` are 1930 nM, more than 12500 nM and more than 100 µM.
For `O=C(c1ccc([N+](=O)[O-])cc1)c1ccc(N2CCOCC2)c([N+](=O)[O-])c1`, in that order: 4200 nM, 2720 nM and more than 100 µM.
For `CN(CCCNc1ccnc2cc(Cl)ccc12)C(=O)c1cccc(Cl)c1`, in that order: 269 nM, 202 nM and 7.34 µM.
`Cc1ccc(N2C(N)=NC(N)=NC2(C)C)c(C)c1`: the concentration giving a half-maximal response (EC50) with Plasmodium falciparum [1] was 105 nM; in the data set on Plasmodium falciparum [2] it was more than 12500 nM. For the same compound, the CC50 in data set [3] was more than 100 µM.
For `COc1ccccc1CN1CCc2nc(N3CCCCC3)sc2C1`, in that order: 454 nM, 277 nM and more than 10 µM.
For `CC(C)NC(=O)CN(C)C1c2ccccc2CCc2ccccc21`, in that order: more than 1380 nM, 254 nM and more than 9.18 µM.
On the same counts, the results for `O=C1C2C(C(=O)N1Cc1ccccc1)C1(c3ccccc3)C(=O)C2(c2ccccc2)C(c2ccccc2)=C1c1ccccc1` (configuration not stated) are 822 nM, more than 12500 nM and more than 100 µM.
Take `Cc1ccc(N2C(=O)C3C(C2=O)C2(c4ccccc4)C(=O)C3(c3ccccc3)C(c3ccccc3)=C2c2ccccc2)cc1[N+](=O)[O-]` (configuration not stated): the EC50 in the data set on Plasmodium falciparum [1] is 822 nM; in the data set on Plasmodium falciparum [2] it was more than 12500 nM. Also, the half-maximal cytotoxic concentration (CC50) in data set [3] is more than 100 µM.
For `CC1=C2C(=O)c3ccccc3C2NC(=O)N1` (configuration not stated), in that order: more than 352 nM, more than 12500 nM and more than 100 µM.
On the same counts, the results for `CCOc1cccc2c(C)nc(NC(=N)N)nc12` are 358 nM, 1540 nM and 56.5 µM.
For `CC(C)[C@@H](CO)Nc1ccnc2c(-c3ccccc3F)cnn12`, in that order: more than 1250 nM, more than 272 nM and more than 10 µM.
With `COC(=O)c1cn([C@H]2C[C@@H](C(=O)NCc3ccc(OC)cc3)N(Cc3ccsc3)C2)nn1`, the EC50 with Plasmodium falciparum [1] is more than 1710 nM; in the data set with Plasmodium falciparum [2], 200 nM. This compound returned a 50% cytotoxic concentration (CC50) in data set [3] of more than 7.38 µM.
For `Cc1cccc(-n2nc3c(c2NC(=O)c2ccc4c(c2)OCO4)CS(=O)(=O)C3)c1C`, in that order: 124 nM, more than 1250 nM and more than 10 µM.
For `Cc1oc2c(cc(NS(=O)(=O)c3ccc(F)cc3)c3ccccc32)c1C(=O)OCc1ccccc1`, in that order: more than 1430 nM, more than 12500 nM and more than 100 µM.
For `CCCc1ccc(OCc2nc(-c3ccc(NC(=O)c4cccs4)cc3)no2)cc1`, in that order: 825 nM, more than 12500 nM and more than 100 µM.
Take `CC(C)(C)C(=O)Nc1ccc(C23CC4CC(CC(c5ccccc5)(C4)C2)C3)cc1`: the figures for the EC50 in the data set with Plasmodium falciparum [1] and in the data set with Plasmodium falciparum [2] were 716 nM and more than 12500 nM, respectively. Moreover, in data set [3], the cytotoxic concentration (CC50) is more than 100 µM.
For `O=C(Cc1cccs1)NC1CCN(CC(O)CN(Cc2ccccc2)S(=O)(=O)c2ccccc2)C1` (configuration not stated), in that order: 181 nM, more than 1250 nM and more than 10 µM.
Turning to `Cc1ccc2c(c1)N=C(c1ccc([N+](=O)[O-])cc1)CO2`, the concentration for a half-maximal effect (EC50) is more than 1300 nM in the data set on Plasmodium falciparum [1] and more than 12500 nM with Plasmodium falciparum [2]. In data set [3], this compound showed a half-maximal cytotoxic concentration (CC50) of more than 100 µM.
For the compound `O=C(O)c1cc([N+](=O)[O-])ccc1Oc1cncc(Cl)c1`, the EC50 in the data set with Plasmodium falciparum [1] is 33.3 nM; in the data set on Plasmodium falciparum [2] it was more than 1250 nM. In addition, the CC50 in data set [3] was more than 10 µM.
On the same counts, the results for `CCOC(=O)c1c[nH]c2ccc(C)cc2c1=O` are 2700 nM, 2760 nM and more than 100 µM.
On the same counts, the results for `CCCCOc1ccc(C(=O)NCCOc2cccc(OC)c2)cc1` are 288 nM, more than 12500 nM and more than 100 µM.
